Source: USRE42700E1, “Induction of apoptosis in cancer cells” (Sanford-Burnham Medical Research Institute, priority 2001, dated 2011)

Experiments:
RARγ = RARγ (Homo sapiens, UniProt P13631); assay: activation of RARγ on the (TREpal)2-tk-CAT reporter construct; format: cell-based
caspases in M07e cells = assay: caspase activation in M07e cells; format: cell-based, human
Method: (§1) Activation of caspases-1, -2, -3, -6, -8 and -9 was assessed using a caspase activation kit.

[1] = system: leukemic blasts from patients (AML or CML in blast crisis); assay: apoptosis in primary cultures of patient leukemic blasts; format: cell-based, human
Method: (§2) Cell Growth: IL-3-transfected M07e cells have been described by Thacker, D. J., et al., Leukemia 8: 871-877 (1994). Cells were grown in RPMI supplemented with 5 percent heat-inactivated fetal bovine serum (FBS) and 25 μg/ml gentamycin in a […], 5% CO2, and 100% humidity environment. Leukemic cells were obtained from patients who met the criteria for the diagnosis of AML or CML in blast crisis (see Table 1). Studies were approved by the Wayne State University Institutional Review Board. Informed consent was obtained from all patients. Leukemic blasts from patients were isolated using Ficoll hypaque. Cells at the interface between plasma and red blood cells were diluted with sterile PBS, then layered over Ficoll hypaque (1.077 density), and the leukemic cells collected at the interface. The sample to be studied represented greater than 90% blasts. The patient leukemia samples were grown in RPMI medium supplemented with 10% FBS, gentamycin (25 μg/ml), IL-3 (20 ng/ml), SCF (25 ng/ml), GM-CSF (20 ng/ml) and G-CSF (20 ng/ml). Cell growth was assessed using a cell proliferation kit.
Apoptosis Quantification: Staining of apoptotic cells was performed as described by Gavreli, Y., et al., (J. Cell. Biol. 119: 493-501 (1992)) and Whitacre, C. M., et al., (Cancer Res. 55: 3697-3701 (1995)). After 3-Cl-AHPC treatment, cells were harvested, washed with PBS and resuspended at 1×10^6 cells/ml. Cell suspensions (50 μl) were stained with […] of acridine orange solution ([…]) in PBS in the dark. Cells displaying fragmented DNA were detected using a fluorescent microscope. Apoptotic cells were also detected using a kit. Cells that incorporated fluorescein labeled deoxyuridine triphosphate were detected using flow cytometry.

MDA-MB-231 = assay: apoptosis induction / cell death in breast cancer cells; format: cell-based, human
[2] = system: caspases in patient leukemic cells; assay: caspase activation in patient leukemic cells; format: cell-based, human; settings: 1 μM
Method: as §1

[3] = system: human acute megakaryocytic leukemia cell line M07e; assay: M07e cell growth / proliferation; format: cell-based
Method: as §2

MDA-MB-468 = assay: apoptosis induction / cell death in breast cancer cells; format: cell-based, human
ZR-75 = assay: as above; format: cell-based, human
[4] = system: PARP in M07e cells and patient leukemic blasts; assay: PARP cleavage by Western blot; format: cell-based, human; settings: 1 μM, by 24 hours
Method: Western Blots: Western blots were performed according to the protocol of Sheikh, M. S., et al., (Oncogene, 9: 3407-3415 (1994)). Logarithmically growing cells were treated with 3-Cl-AHPC for various times and cells were harvested and lysed in Laemmli lysis buffer (0.5 M Tris-HCl, pH 6.8, 0.002M EDTA, 10% glycerol, 10% sodium dodecyl sulfate (SDS), and 5% β-mercaptoethanol). Protein lysates (50 μg/lane) were electrophoresed on 12% SDS-polyacrylamide gels and transferred to nitrocellulose membranes. Membranes were blocked with 5% nonfat dried milk in PBS/0.5% Tween 20 and then incubated with the appropriate antibodies. Horseradish peroxidase-conjugated rabbit anti-mouse IgG was used as the secondary antibody, and bands were developed using the Amersham ECL non-radioactive method.

[5] = system: leukemic blasts from patient 1; assay: leukemia colony formation in methylcellulose; format: cell-based, human; settings: 14 days
Method: Leukemia Colony Formation: Leukemic blasts (1×10^5 cells) from patient 1 (Table 1) were isolated as described above and cultured in methylcellulose supplemented with 20% FCS, SCF, and IL-3, GM-CSF and G-CSF at a final concentration of 10 ng per ml, cells were incubated for 14 days at 37° C. in a 5% CO2 humidified atmosphere in the presence and absence of 3-Cl-AHPC after which time colonies (>40 cells) were counted.

[6] = CFU-GM colony formation, human bone marrow; format: cell-based; settings: bone marrow CFU-GM progenitor cells
Method: (§3) CFU-GM Colony Formation: The CFU-GM colony assay was performed as described in Parchment et al., (J. Natl. Cancer Inst. 86: 273-280 (1994)).

[7] = system: committed marrow stem cells (CFU-GM); assay: CFU-GM colony formation (species not stated); format: cell-based; settings: concentrations which completely inhibited leukemic colony formation
Method: as §3

Chain of RARγ (P13631 whole entry, species assumed): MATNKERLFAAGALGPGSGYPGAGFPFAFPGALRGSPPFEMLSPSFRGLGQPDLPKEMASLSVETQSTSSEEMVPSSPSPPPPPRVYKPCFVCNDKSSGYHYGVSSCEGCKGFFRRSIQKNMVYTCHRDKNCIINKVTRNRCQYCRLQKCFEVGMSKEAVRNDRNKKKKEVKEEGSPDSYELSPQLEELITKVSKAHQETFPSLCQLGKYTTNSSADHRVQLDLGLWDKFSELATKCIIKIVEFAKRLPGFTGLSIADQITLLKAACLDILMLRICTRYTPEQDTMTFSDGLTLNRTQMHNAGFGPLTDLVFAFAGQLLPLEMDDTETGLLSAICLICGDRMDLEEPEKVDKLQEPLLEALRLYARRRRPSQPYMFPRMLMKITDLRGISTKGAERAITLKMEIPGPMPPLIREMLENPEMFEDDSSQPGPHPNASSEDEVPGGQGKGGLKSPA

For `O=C(O)/C=C/c1ccc(-c2ccc(O)c(C34CC5CC(CC(C5)C3)C4)c2)c(Cl)c1` [Example 3-Cl-AHPC, (E)-4-[3-(1-Adamantyl)-4-hydroxyphenyl]-3-chlorocinnamic acid], the “activation of RARγ relative to that of 1.0 μM tRA” value (RARγ) was “less than 10%”, the “increase in activity of caspase-2” value (caspases in M07e cells; 0.5 μM) was “approximately 2 fold” and the “increase in activity of caspase-3” value (caspases in M07e cells; 0.5 μM) was “approximately 2 fold”. For the same compound, the “increase in activity of caspase-6” value (caspases in M07e cells; 0.5 μM) was “approximately 2 fold”, the “increase in activity of caspase-8” value (caspases in M07e cells; 0.5 μM) was “approximately 2 fold” and the “increase in activity of caspase-2” value (caspases in M07e cells; 1 μM) was “approximately 4 fold”. The “increase in activity of caspase-3” value (caspases in M07e cells; 1 μM) was 2.5 fold, the “increase in activity of caspase-6” value (caspases in M07e cells; 1 μM) was 3 fold and the “increase in activity of caspase-8” value (caspases in M07e cells; 1 μM) was “approximately 4 fold”. The “apoptosis of leukemic blasts” value ([1]; 0.5 μM) was 60%, the induction of apoptosis ([1]; 1 μM, 11 primary cultures) was greater than 80% and the “apoptosis of leukemic blasts” value ([1]; 0.2 and 0.1 μM) was “minimal apoptosis”. The “proliferation and apoptosis of primary human AML cultures (FIG. 13)” value ([1]; non-APL AML samples) was “inhibited the proliferation and induced apoptosis”, the “concentration required to induce apoptosis” value ([1]; patient leukemic cells) was 0.5 µM and the ED50 (concentration that results in 50% cell death) (MDA-MB-231) was 650 nM. The “activation of caspase-2” value [2] was 6 fold, the “activation of caspase-5” value [2] was “two-fold” and the “activation of caspase-6” value [2] was 4 fold. The “activation of caspase-8” value [2] was 4 fold, the “activation of caspase-9” value [2] was “two-fold” and the “activation of caspase-3” value ([2]; 24 hours) was 8 fold. The “activation of caspase-3” value ([2]; 48 hours) was 14 fold, the “concentration required to inhibit growth of M07e cells” value [3] was 0.2 µM and the inhibition of growth ([3]; 0.2 μM) was “inhibition of growth”. The inhibition of proliferation ([3]; varying concentrations over time) was “progressive increase in the inhibition of proliferation”, the ED50 (concentration that results in 50% cell death) (MDA-MB-468) was 710 nM and the ED50 (concentration that results in 50% cell death) (ZR-75) was 700 nM. The PARP cleavage [4] was “rapid cleavage of 116-Kd PARP”, the “concentration for complete inhibition of leukemia colony formation” value [5] was 600 nM and the IC50 ([5]; Homo sapiens, 336 h, patient 1, read-out: inhibition of leukemia colony formation, ED50 (IC50)) was 375 nM. For the same compound, the IC90 [6] was greater than 15000 nM and the “inhibition of CFU-GM colony formation” value [7] was 30%.
